The values that follow come from US12533384B2, “Lactobacillus reuteri CCFM1132 capable of relieving hyperuricemia and application thereof” (Jiangnan University, priority 2020, dated 2026).

Molecules are shown by their SMILES.

The subject of the test is mice with hyperuricemia. Briefly: Serum creatinine of mice with hyperuricemia (Mindray BS480 biochemical analyzer). It counts as in vivo, KunMing mice. The settings on record: 5 mg/kg BW by intragastric administration. As for the experimental part: 24 healthy male KunMing mice with the weight of 24 to 32 g were randomly divided into four groups after a week of acclimatization, namely a control group, a hyperuricemia model group, an L. reuteri CCFM1132 intervention group and an allopurinol intervention group (allopurinol). Except the control group, 500 mg/kg BW hypoxanthine was given to the other groups every day by intragastric administration, and 200 mg/kg BW oteracil potassium was intraperitoneally injected to the other groups 1 h later. At 1 h before processing with oteracil potassium, 100 g/L skim milk was given to the control group and the hyperuricemia model group, L. reuteri CCFM1132 with the concentration of 1.0×10^9 CFU/mouse was given to the L. reuteri CCFM1132 intervention group, and 5 mg/kg BW allopurinol was given to the allopurinol group.
At the end of the experiment, fresh feces of the mice was collected and frozen at −80° C. After the experiment was finished, the mice were subjected to fasting but free for drinking water for 12 h. 0.1 mL/10 g of […] pentobarbital sodium solution was intraperitoneally injected for anesthetization. […] The serum uric acid levels were determined by using a kit method.
Experimental animal groups and processing methods are the same as those of Example 3, and serum creatinine was detected by using a Mindray BS480 biochemical analyzer according to a kit method.

For the compound `Oc1ncnc2[nH]ncc12` [allopurinol], the “serum creatinine reducing effect” value is “does not have the reducing effect”.
